Source: patent EP1067939B1, “USE OF STEROIDAL ALKALOID DERIVATIVES AS INHIBITORS OF HEDGEHOG PROTEIN SIGNALING PATHWAYS” (The Johns Hopkins University, priority 1998, dated 1999)
Read-outs that look alike come from different tables or passages of the source.

Tests used:
[1] = target: T1, His6Hh-C (Drosophila melanogaster, UniProt Q02936); test: In vitro Hh autoprocessing reaction with purified components; type: biochemical; conditions: for efficiency in driving the in vitro autoprocessing reaction: 12 µM sterol
T1 construct: made in house
T1 sequence (Q02936 252-471): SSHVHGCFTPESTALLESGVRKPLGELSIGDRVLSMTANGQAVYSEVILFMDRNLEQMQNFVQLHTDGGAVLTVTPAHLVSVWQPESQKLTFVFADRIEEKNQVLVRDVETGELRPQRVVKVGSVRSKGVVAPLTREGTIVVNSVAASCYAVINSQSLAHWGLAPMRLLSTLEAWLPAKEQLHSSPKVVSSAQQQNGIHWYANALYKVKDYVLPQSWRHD

[2] = system: Shh-N; test: Intermediate neural plate explant response to exogenous Shh-N protein; type: cell-based, chick
[3] = system: BMP7; test: Neural plate explant response to BMP7 (migratory HNK-1 positive cells); type: cell-based, chick
[4] = at the concentrations that block the response to 25 nM Shh-N

SMILES: CC(C)CCC[C@@H](C)[C@H]1CC[C@H]2[C@@H]3CC=C4C[C@@H](S)CC[C@]4(C)[C@H]3CC[C@]12C [thiocholesterol]
- participation of sterol in the autoprocessing reaction [1]: unable to participatein the reaction

SMILES: CC(C)(O)CC[C@@H](O)[C@](C)(O)[C@H]1CC[C@@]2(O)C3=CC(=O)[C@@H]4C[C@@H](O)[C@@H](O)C[C@]4(C)[C@H]3CC[C@]12C [20-OH ecdysone]
- participation of sterol in the autoprocessing reaction [1]: unable to participatein the reaction

SMILES: C[C@H](CCCC(C)(C)O)[C@H]1CC[C@H]2[C@@H]3CC=C4C[C@@H](O)CC[C@]4(C)[C@H]3CC[C@]12C [25-hydroxycholesterol]
- reversal of the inhibitory effects of the teratogenic compounds ([2]; 25 µM added together with teratogenic compounds): did not reverse the inhibitory effects
- explant responses to Shh-N ([2]; 25 µM, 2nM or 25 nM Shh-N): None of the explant responses to treatment with 2nM or 25 nM Shh-N were affected

SMILES: CC(C)CC[C@@H](O)[C@](C)(O)[C@H]1CC[C@@]2(O)C3=CC(=O)[C@]4(O)C[C@@H](O)[C@@H](O)C[C@]4(C)[C@H]3[C@H](O)C[C@]12C [muristerone]
- stimulation of autoprocessing [1]: do not stimulate autoprocessing above background

SMILES: CC(=O)[C@H]1CC[C@H]2[C@@H]3CCC4=CC(=O)CC[C@]4(C)[C@H]3CC[C@]12C [progesterone]
- concentration that blocks the response of intermediate neural plate explants to 25 nM Shh-N ([2]; 25 nM Shh-N): 20 µM
- signaling by BMP7 [3, 4]: without affecting signaling by BMP7

SMILES: CN(C)CCCN1c2ccccc2CCc2ccccc21 [imipramine]
- concentration that blocks the response of intermediate neural plate explants to 25 nM Shh-N ([2]; 25 nM Shh-N): 75 µM
- signaling by BMP7 [3, 4]: without affecting signaling by BMP7

SMILES: C[C@H]([C@H](O)CCC(C)(C)O)[C@H]1CC[C@@]2(O)C3=CC(=O)[C@@H]4C[C@@H](O)[C@@H](O)C[C@]4(C)[C@H]3CC[C@]12C [α-ecdysone]
- participation of sterol in the autoprocessing reaction [1]: unable to participatein the reaction

SMILES: CCN(CC)CCO[C@H]1CC[C@@]2(C)C(=CC[C@@H]3[C@@H]2CC[C@]2(C)C(=O)CC[C@@H]32)C1 [U 18666A]
- concentration that blocks the response of intermediate neural plate explants to 25 nM Shh-N ([2]; 25 nM Shh-N): 0.25 µM
- signaling by BMP7 [3, 4]: without affecting signaling by BMP7

SMILES: CC(=O)O[C@H]1CC[C@@]2(C)C(=CC[C@H]3[C@@H]4CC[C@H]([C@H](C)CCCC(C)C)[C@@]4(C)CC[C@@H]32)C1 [cholesterol acetate]
- participation of sterol in the autoprocessing reaction [1]: unable to participatein the reaction

SMILES: CC(C)CCC[C@@H](C)[C@H]1CC[C@H]2C3=CC[C@H]4C[C@@H](O)CC[C@]4(C)[C@H]3CC[C@]12C [lathosterol]
- efficiency in driving the in vitro autoprocessing reaction [1]: efficiencies similar to that of cholesterol

SMILES: CCN(CC)CCCC(C)Nc1ccnc2cc(Cl)ccc12 (centres unmarked) [chloroquine]
- concentration that blocks the response of intermediate neural plate explants to 25 nM Shh-N [2]: 50 µM
- signaling by BMP7 [3]: without affecting signaling by BMP7

SMILES: CC(C)CCC[C@@H](C)[C@H]1CC[C@H]2[C@@H]3CC=C4C[C@H](O)CC[C@]4(C)[C@H]3CC[C@]12C [Epicholesterol]
- participation of sterol in the autoprocessing reaction [1]: unable to participatein the reaction

SMILES: CC(C)=CCC[C@@H](C)[C@H]1CC[C@H]2[C@@H]3CC=C4C[C@@H](O)CC[C@]4(C)[C@H]3CC[C@]12C [desmosterol]
- efficiency in driving the in vitro autoprocessing reaction [1]: efficiencies similar to that of cholesterol

SMILES: CC(C)CCC[C@@H](C)[C@H]1CC[C@H]2C3=CC=C4C[C@@H](O)CC[C@]4(C)[C@H]3CC[C@]12C [7DHC, 7-dehydrocholestetol]
- efficiency in driving the in vitro autoprocessing reaction [1]: efficiencies similar to that of cholesterol

SMILES: CC(C)=CCC[C@@H](C)[C@H]1CC[C@@]2(C)C3=C(CC[C@]12C)[C@@]1(C)CC[C@H](O)C(C)(C)[C@@H]1CC3 [Lanosterol]
- stimulation of autoprocessing ([1]; 12 and 350 µM): do not stimulate autoprocessing above background
